# Assay results reported in patent US11065232B2, “Dihydrotetrabenazine for the treatment of anxiety and psychoses” (ADEPTIO PHARMACEUTICALS LIMITED, priority 2017, dated 2021).
# Key:
# [1] = biological target: T1, 5-HT1A(h) (agonist radioligand) (Homo sapiens, UniProt P08908); assay: Receptor protein binding studies, 5-HT1A
# T1 sequence (P08908 1-422): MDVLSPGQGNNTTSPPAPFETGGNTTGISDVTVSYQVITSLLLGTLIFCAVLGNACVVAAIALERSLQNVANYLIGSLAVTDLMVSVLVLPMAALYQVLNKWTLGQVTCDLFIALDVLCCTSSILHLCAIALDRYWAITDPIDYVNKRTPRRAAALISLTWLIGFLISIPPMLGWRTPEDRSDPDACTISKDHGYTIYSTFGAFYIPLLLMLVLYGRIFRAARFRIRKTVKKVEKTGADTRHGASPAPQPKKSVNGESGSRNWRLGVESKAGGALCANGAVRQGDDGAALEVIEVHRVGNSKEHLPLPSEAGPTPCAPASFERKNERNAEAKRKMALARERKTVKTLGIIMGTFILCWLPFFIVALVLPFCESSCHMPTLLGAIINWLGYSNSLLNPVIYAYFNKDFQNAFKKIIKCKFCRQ
# Description: (§1) The four 3,11b trans-dihydrotetrabenazine isomers (+)-α, (−)-α, (+)-β and (−)-β were subjected to specific binding assays to test their ability to bind to the receptors and transporter proteins described below. The results are set out in Table 1
# [2] = biological target: T2, D4.4 (h) (antagonist radioligand) (Homo sapiens, UniProt P21917); assay: Receptor protein binding studies, D4.4; settings: read-out: % Inhibition of specific binding
# T2 sequence (P21917 1-419): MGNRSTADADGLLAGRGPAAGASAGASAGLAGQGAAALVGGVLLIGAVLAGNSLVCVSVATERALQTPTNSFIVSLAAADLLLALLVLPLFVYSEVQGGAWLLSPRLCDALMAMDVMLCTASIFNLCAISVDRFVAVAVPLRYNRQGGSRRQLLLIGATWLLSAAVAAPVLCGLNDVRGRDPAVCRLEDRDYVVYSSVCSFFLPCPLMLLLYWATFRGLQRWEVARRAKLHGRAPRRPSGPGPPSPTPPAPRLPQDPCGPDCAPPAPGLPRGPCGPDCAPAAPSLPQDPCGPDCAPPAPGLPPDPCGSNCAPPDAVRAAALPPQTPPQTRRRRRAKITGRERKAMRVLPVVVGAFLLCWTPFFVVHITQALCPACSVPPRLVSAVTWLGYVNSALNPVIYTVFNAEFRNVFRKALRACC
# Description: as §1
# [3] = biological target: hERG (membrane preparation) (antagonist radioligand) (Homo sapiens, UniProt Q12809); assay: Receptor protein binding studies, hERG
# Description: as §1
# [4] = biological target: T3, alpha 2A (h) (antagonist radioligand) (Homo sapiens, UniProt P08913); assay: Receptor protein binding studies, alpha 2A
# T3 sequence (P08913 1-465): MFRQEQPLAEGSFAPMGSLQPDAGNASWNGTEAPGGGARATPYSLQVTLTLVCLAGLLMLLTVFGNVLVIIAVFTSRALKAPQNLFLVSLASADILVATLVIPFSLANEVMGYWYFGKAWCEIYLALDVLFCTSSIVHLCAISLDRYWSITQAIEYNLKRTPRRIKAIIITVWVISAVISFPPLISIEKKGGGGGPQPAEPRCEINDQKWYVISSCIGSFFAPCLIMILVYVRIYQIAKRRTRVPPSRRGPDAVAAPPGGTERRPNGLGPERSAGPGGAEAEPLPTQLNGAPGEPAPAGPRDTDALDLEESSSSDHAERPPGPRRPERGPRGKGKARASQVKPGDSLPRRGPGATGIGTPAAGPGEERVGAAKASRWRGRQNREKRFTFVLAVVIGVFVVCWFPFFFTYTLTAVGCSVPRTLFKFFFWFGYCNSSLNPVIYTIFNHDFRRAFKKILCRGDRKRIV
# Description: as §1
# [5] = biological target: T4, alpha 2C (h) (antagonist radioligand) (Homo sapiens, UniProt P18825); assay: Receptor protein binding studies, alpha 2C
# T4 sequence (P18825 1-462): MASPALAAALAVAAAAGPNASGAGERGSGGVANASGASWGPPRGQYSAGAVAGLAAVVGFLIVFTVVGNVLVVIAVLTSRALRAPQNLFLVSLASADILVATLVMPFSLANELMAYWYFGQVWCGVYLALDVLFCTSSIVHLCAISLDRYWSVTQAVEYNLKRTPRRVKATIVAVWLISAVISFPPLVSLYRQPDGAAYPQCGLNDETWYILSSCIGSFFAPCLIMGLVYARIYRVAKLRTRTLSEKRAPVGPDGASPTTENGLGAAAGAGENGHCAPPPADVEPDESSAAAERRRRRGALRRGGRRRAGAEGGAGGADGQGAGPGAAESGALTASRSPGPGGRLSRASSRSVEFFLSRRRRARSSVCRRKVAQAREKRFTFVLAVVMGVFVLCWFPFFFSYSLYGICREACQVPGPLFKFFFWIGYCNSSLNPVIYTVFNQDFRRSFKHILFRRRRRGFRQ
# Description: as §1
# [6] = biological target: 5-HT2B (h) (agonist radioligand) (Homo sapiens, UniProt P41595); assay: Receptor protein binding studies, 5-HT2B
# Description: as §1
# [7] = system: I2 (antagonist radioligand); assay: Receptor protein binding studies, I2
# Description: as §1
# Chain of hERG (membrane preparation) (antagonist radioligand) (Q12809 whole entry): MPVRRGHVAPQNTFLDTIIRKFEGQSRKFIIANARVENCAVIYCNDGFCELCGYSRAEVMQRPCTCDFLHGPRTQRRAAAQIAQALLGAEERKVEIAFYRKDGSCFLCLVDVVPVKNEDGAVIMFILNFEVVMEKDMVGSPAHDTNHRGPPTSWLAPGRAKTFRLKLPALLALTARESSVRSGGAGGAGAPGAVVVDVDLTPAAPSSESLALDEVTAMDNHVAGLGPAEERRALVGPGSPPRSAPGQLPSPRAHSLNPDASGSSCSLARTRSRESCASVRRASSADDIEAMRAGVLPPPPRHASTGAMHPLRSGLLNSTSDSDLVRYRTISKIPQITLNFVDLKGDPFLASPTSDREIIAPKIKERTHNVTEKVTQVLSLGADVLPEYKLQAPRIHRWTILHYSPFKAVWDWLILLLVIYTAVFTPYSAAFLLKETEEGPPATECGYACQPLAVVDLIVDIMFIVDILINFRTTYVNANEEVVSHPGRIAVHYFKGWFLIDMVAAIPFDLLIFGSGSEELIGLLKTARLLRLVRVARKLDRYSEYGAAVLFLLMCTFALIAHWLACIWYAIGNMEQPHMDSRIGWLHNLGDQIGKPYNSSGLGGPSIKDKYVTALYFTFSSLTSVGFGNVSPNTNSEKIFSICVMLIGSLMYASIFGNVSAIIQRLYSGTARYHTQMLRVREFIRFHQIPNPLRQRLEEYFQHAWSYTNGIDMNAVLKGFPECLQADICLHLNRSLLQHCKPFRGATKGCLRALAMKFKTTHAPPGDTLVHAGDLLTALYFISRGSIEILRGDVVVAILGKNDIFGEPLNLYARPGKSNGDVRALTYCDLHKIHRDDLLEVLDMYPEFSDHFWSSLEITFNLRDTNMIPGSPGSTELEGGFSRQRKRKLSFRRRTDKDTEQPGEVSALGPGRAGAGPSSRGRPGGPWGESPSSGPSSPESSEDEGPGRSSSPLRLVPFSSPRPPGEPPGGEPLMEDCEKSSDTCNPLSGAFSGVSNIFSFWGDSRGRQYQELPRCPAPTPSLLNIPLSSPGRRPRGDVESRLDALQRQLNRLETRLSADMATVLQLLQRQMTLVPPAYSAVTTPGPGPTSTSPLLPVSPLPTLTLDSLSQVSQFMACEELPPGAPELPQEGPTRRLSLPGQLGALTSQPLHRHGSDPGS
# Chain of 5-HT2B (h) (agonist radioligand) (P41595 whole entry): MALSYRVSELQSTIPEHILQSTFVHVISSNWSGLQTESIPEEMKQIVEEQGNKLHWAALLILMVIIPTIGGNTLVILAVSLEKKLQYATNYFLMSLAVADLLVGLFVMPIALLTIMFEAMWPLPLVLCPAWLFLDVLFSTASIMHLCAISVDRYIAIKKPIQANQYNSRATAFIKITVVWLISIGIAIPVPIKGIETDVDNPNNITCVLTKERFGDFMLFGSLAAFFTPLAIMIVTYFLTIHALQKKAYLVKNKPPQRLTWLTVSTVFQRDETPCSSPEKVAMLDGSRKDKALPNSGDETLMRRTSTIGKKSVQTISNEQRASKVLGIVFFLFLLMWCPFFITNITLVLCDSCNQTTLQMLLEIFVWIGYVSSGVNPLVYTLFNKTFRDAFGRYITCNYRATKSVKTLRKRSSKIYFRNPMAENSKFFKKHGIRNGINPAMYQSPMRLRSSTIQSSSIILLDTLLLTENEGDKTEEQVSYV
compound,measurement,setting,value
"COc1cc2c(cc1OC)[C@@H]1C[C@@H](O)[C@@H](CC(C)C)CN1CC2 [(−)-Beta, (2S,3R,11bR)-3-isobutyl-9,10-dimethoxy-1,3,4,6,7,11b-hexahydro-2H-pyrido[2,1,a]isoquinolin-2-ol]",activity at the 5-HT 1A receptor (in words),[1],potent agonists
same,inhibition at 10 µM,"[2]; CONC 1.0E−05 (unit inferred), 10 μM",99%
same,inhibition at 1 µM,"[2]; CONC 1.0E−06 (unit inferred), 1 μM",87%
same,% Inhibition of specific binding,[3]; CONC 1.0E−05 (unit not given),64%
same,% Inhibition of specific binding,[3]; CONC 1.0E−06 (unit not given),−1%
same,activity at the alpha 2A receptor (in words),[4],potent antagonists
same,activity at the alpha 2C receptor (in words),[5],potent antagonists
same,activity at the 5-HT 2B receptor (in words),[6],potent agonists
same,% Inhibition of specific binding,[7]; CONC 1.0E−05 (unit not given),37%
same,% Inhibition of specific binding,[7]; CONC 1.0E−06 (unit not given),11%
